Data published in patent USRE35224E (The Board of Trustees of the Leland Stanford Junior …, priority 1993, dated 1996).
“Also recorded” adds a separate entry of the source. Structures can show the parent of a compound that is named as a salt. Where two headings read alike, the source gives them in different places.

Tests used:
natural suppressor cells [1] = experiment: Mixed leukocyte reaction (MLR) suppressor assay; format: cell-based, mouse (BALB/c, C57 BL/6)
Experimental: Responder (BALB/c) and stimulator (C57 BL/6) spleen cells (5×10^5each) were incubated with graded numbers of NS cells in 0.3 ml/well in 96-well flat bottomed microculture plates (Costar, Data Packaging, Cambridge, MA). The culture medium was supplemented with 100 U/ml penicillin, 100 ug/ml of streptomycin (both GIBCO, Grand Island, NY), and 10=pooled human serum (VSP human serum, Biocell Laboratories, Carson CA). Co-cultured cells and stimulator cells were given 3300 rad before incubation. Cultures were maintained at 37° C. in 5% CO2 for 5 or 6 days. Eighteen hr before termination, 1 μCi of ^3 H!-thymidine (specific activity […]) (New England Nuclear, Boston, MA) was added to each culture. Cells were harvested as described above. The data were expressed as the arithmetic mean of triplicate cultures. Suppression was calculated as follows: percent suppression=1-(CPM with co-cultured cells)/(CPM without co-cultured cells)×100. […] To block the effects of agonists, […] cimetidine was used as an H2 antagonist and 10^-6 M mepyramine was used as an H1 antagonist.
CO-cultured and stimulator cells were given 3300 rad in vitro just prior to incubation. […] See, Khan et al., J. Immunol. (1985) 134:4100. […] To determine the role of H1 and H2 receptors in the modification of NS cell function, the incubation with compound 10 was carried out in the presence of either cimetidine (10^-5 M) or mepyramine (10^-6 M) for four hours at 37° C. The cells were then washed extensively and later added to co-cultures with responder and stimulator cells. […] Similar experiments were carried out with each of the indicated agonists (Table 5).

natural suppressor cells [2] = target: T1, natural suppressor cells (Mus musculus, UniProt P97292); experiment: Effects of histamine derivatives on cAMP accumulation in natural suppressor (NS) cells; format: cell-based, mouse (BALB/c); conditions: for Maximal efficacy on cAMP concentrations (in words): compared with histamine; for Activity / potency on NS cells (in words): cAMP accumulation, H2 activity; for Relative potency: histamine = 1.0
T1 construct: cAMP accumulation
T1 sequence (P97292 whole entry): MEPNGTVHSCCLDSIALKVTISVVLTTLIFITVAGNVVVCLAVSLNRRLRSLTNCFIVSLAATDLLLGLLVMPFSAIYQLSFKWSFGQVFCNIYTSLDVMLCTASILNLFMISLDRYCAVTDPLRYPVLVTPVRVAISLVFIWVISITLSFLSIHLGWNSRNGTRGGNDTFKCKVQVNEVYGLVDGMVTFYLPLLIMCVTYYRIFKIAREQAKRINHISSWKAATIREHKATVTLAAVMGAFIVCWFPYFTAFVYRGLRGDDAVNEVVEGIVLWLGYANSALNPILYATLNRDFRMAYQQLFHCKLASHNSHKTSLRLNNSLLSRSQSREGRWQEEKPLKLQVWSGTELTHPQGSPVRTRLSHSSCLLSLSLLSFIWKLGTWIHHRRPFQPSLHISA
Excerpt: NS cells were obtained and cultured as follows: four-to six-month old BALB/c mice were anesthetized with pentobarbital and all major lymphoid organs, including all major lymph nodes, the spleen, and the thymus, were irradiated as described by Slavin et al., Science (1976) 193:1252. The skull, lungs, and hind legs were shielded with lead. The mice were given 200 rad per day, 5 times per week, to a total dose of 3400 rad. Irradiation was delivered from a single 250 kV (15A) source (Philips Medical Systems, Inc., Shelton, CT). The mice were killed between 5 and 15 days after completion of the TLI. Spleens were removed aseptically and single cell suspensions were prepared by gently pressing the spleen fragments through a nylon fiber mesh (Tetko, Inc., Elmsford, NY). These spleen cells were fed daily with tissue culture medium containing RPMI 1640, 10% FCS, 2 mM glutamine, 10% CAS and 5×10^-5 M 2-mercaptoethanol and were later cloned by limiting dilutior, The clones were maintained in RPMI 1640 medium with 10% PCS and 10% CAS.
NS cells were centrifuged and resuspended at b 1×10^6 /ml in PBS and incubated at 37° C. for 10 min with 10 mM IBMX at a final concentration at 20 μM. Alternatively the cells were resuspended in 5 mM HEPES and 1 mM MgSO4 and after five minutes were disrupted in a Dounce homogenizer. Broken cells were centrifuged at 20,000 g […] for thirty minutes and supernatant was discarded. The pellet was resuspended in Tris (pH 7.5), 5 mM HEPES and 1 mM MgSO4 and incubated with IBMX.
Cold TCA (100%) was added to a final concentration of 8% and the tubes were stored in ice. Samples were extracted 3 times with 3 volumes of ether. The ether was evaporated at 40° C. in a water bath for approximately 45 min. Acetylation of both experimental samples and cAMP standards were performed by addition of 10 μl of a mixture of triethylamine and acetic anhydride (2:1). […] The radio-immunoassay was performed as reported previously by Khan et al., J. Clin. Invest. (1985) 75:1578.

natural suppressor cells [3] = target: T1, natural suppressor cells; experiment: Blocking histamine effects in natural suppressor cells (H2 antagonism); format: cell-based, mouse (BALB/c); conditions: for Antagonism by cimetidine (H2 antagonist) of cAMP accumulation: cimetidine 10^-5 M, compounds 6-8 at 10^-4 M, 9 at 10^-7 M
Experimental: This assay was carried out in the same fashion as already described for the derivatives except that ED-90 concentration of the test compound was chosen. Cimetidine was added at the same time in concentrations ranging from 10^-4 to 10^-8 M. Alternatively, 10^-6 M cimetidine was added to 10^-3 -10^-8 M concentration of agonists.

[4] = target: T2, guinea pig myocardial adenylate cyclase (Cavia porcellus, UniProt P47747); experiment: Guinea pig myocardial adenylate cyclase assay; format: biochemical; conditions: adenylate cyclase
T2 construct: histamine-stimulated adenylate cyclase with GPP(NH)P
T2 sequence (P47747 whole entry): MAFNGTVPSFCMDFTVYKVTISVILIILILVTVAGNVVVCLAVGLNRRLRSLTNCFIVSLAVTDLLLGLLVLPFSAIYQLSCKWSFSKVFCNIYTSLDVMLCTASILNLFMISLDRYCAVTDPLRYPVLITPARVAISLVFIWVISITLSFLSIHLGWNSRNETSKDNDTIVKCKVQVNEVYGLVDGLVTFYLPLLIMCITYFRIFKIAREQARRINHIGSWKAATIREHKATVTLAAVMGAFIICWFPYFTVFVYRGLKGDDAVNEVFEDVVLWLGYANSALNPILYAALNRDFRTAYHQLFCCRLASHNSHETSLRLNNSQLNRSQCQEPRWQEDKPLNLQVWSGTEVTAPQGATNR
Experimental: Male, partly albino, guinea pigs (600 g average weight) were killed by a blow to the head. The hearts were excised and immediately immersed in ice cold oxygenated Tyrode's solution. Both ventricles were dissected free and placed in 250 mM sucrose, 5 mM Tris, 1 mM EDTA, pH 7.45. The tissue was minced with a screen, and was then homogenized with 3 consecutive 5 sec bursts of a Polytron (Brinkman Instruments, Inc., Westbury, NY) at a setting of 11. The homogenate was then centrifuged at 1085×g for 20 min. The pellet was resuspended and recentrifuged twice. The final suspension was filtered through four layers of gauze. Adenylate cyclase was assayed by the method of Salomon et al., Anal. Biochem. (1974) 58:541 as modified by Bristow et al., Mol Pharmacol. (1982) 21:671. Enzyme protein (75-250 μg) was added to a reaction mixture that consisted of 0.1 mM Mg ATP, 0.5 mM MgCl2, 10 mM phosphocreatine, 14.5 μg of creatine kinase (1381 U/mg), 100 mM
The final reaction volume before addition of α-^32 P!ATP was 225 μl. Reaction tubes were stored in cryogenic racks (Kryorack, Isolab, Inc. Akron, OH) at 0° C.
The reaction mixture was pre-warmed in a shaking water bath at 30° C. for 5 min after which 25 μl ([…]) of α-^32 P!ATP (250-500 Ci/mM) was added to label the ATP pool. The assay time was 20 min, the time needed for measurable stimulation of adenylate cyclase. The ^32 P reaction was stopped by the addition of 750 μl of 1% sodium dodecysulfate. ^32 P-labelled cyclic AMP was then isolated by the dual Dowex-alumina column method of Salomon et al., supra. α-^32 P!ATP (New England Nuclear Corporation, Boston, MA) that gave reagent blanks of 50 cpm was purified on Dowex columns as described by Salomon et al., supra.

Compound	Activity / potency on NS cells (in words) (natural suppressor cells [2])	Relative potency (natural suppressor cells [2]; NS cells)	Activity on guinea pig myocardium (in words) [4]	Antagonism by cimetidine (H2 antagonist) of cAMP accumulation (natural suppressor cells [3])	other results
COc1ccc(CN(CCN(C)C)c2ccccn2)cc1 [Mepyramine, reference compound]	–	–	–	–	Effect of antagonist on derivative-enhanced suppression in MLR (natural suppressor cells [1]; with compound 10, cimetidine 10^-5 M or mepyramine 10^-6 M, four hours at 37° C): reversed the increase in suppressive activity of the derivative-stimulated NS cells
CN(C)CCCSC(=N)N [Dimaprit, reference compound]	had H2 effects on the NS cells	–	–	–	EC50 (natural suppressor cells [2]; NS cells): 60 µM; Maximal efficacy on cAMP concentrations (in words) (natural suppressor cells [2]; NS cells): did not produce the same maximal effects as histamine on cAMP concentrations; Shift of dose response curve by cimetidine (natural suppressor cells [3]; 10^-3 M to 10^-8 M agonist, 10^-6 M cimetidine): parallel shifts to the right
CCCCCCNCCc1c[nH]cn1 [Compound 1, 1-2'-(4"-Imidazo)ethylamino!hexane, Dihydrochloride]	–	0.5 × 10^1	–	not inhibited by the H2 antagonist	Potency relative to histamine (in words) (natural suppressor cells [2]; NS cells, Dihydrochloride): about equipotent to histamine; also recorded: equipotent to histamine on the lymphocyte accumulation of cyclic AMP; Activity on guinea pig myocardium (in words) ([4]; Dihydrochloride): completely inactive; also recorded: little or no effect on the myocardium
Cc1ccc(NC(=O)CCCC(=O)NCCc2c[nH]cn2)cc1 [Compound 4, 5-2'-(4"-Imidazo)ethylamido!glutaryl p-Toluidine]	very active on NS cells	0.4 × 10^1	inactive on the guinea pig myocardium; also recorded: little or no effect on the myocardium	not inhibited by the H2 antagonist	Potency relative to histamine (in words) (natural suppressor cells [2]; NS cells): four times more potent than histamine; also recorded: equipotent to histamine on the lymphocyte accumulation of cyclic AMP
Cc1ccc(NC(=O)CCCC(C)NCCc2c[nH]cn2)cc1 (stereo not drawn) [Compound 6]	very potent in NS cell cAMP assays	3.8 × 10^3	strikingly impotent in guinea pig myocardium; also recorded: less potent than histamine on the myocardium; also recorded: very weak effects; also recorded: significantly different in their activity	could not be completely inhibited by the H2 antagonist	Potency or activity relative to histamine (natural suppressor cells [2]; NS cells): 3000 fold; Potency relative to histamine (in words) (natural suppressor cells [2]; NS cells): three orders of magnitude more potent than histamine; Activity / potency on NS cells (in words) (natural suppressor cells [2]; listed as compound 6): widely divergent activity; also recorded: retained H2 activity; Activity on guinea pig myocardium (in words) ([4]; listed as compound 6): same rank order of potency found in the NS cells
CNC(=O)CNC(=O)[C@H](Cc1ccc(NC(=O)CCCCC(C)NCCc2c[nH]cn2)cc1)NC(=O)OC(C)(C)C (stereo partly drawn) [Compound 12]	impotent as H2 receptor agonists on NS cells	Inactive	stimulated guinea pig myocardium	–	Activity / potency on NS cells (in words) (natural suppressor cells [2]; listed as compound 12): Neither an aliphatic amide derivative of histamine (compound 3) nor the dipeptide conjugate of histamine (compound 12) altered intracellular cAMP; also recorded: inactive on NS cells; Blockade of histamine mediated accumulation of cAMP (natural suppressor cells [3]; NS cells): failed to block histamine mediated accumulation of cAMP
Cc1ccc(NC(=O)CCCCNCCc2c[nH]cn2)cc1 [Compound 5, 5-2'-(4"-Imidazo)ethylamino!pentanoic Acid p-Toluide, Dihydrochloride]	–	0.2 × 10^1	–	–	Activity on guinea pig myocardium (in words) ([4]; Dihydrochloride): significantly different in their activity
Cc1ccc(NC(=O)CCCCC(C)NCCc2c[nH]cn2)cc1 (stereo not drawn) [Compound 7, 6-2'-(4"-Imidazolyl)ethylamino!heptanoic Acid p-Toluide]	widely divergent activity	0.3 × 10^1	same rank order of potency found in the NS cells	–	Potency relative to histamine (in words) (natural suppressor cells [2]; NS cells): three times as potent as histamine
Cc1ccc(NC(=O)CCCCCC(C)NCCc2c[nH]cn2)cc1 (stereo not drawn) [Compound 8]	widely divergent activity	0.2 × 10^1	very weak effects	–	Activity on guinea pig myocardium (in words) ([4]; listed as compound 8): same rank order of potency found in the NS cells

Now from value to compound, other results behind:

Activity / potency on NS cells (in words) (natural suppressor cells [2])	Relative potency (natural suppressor cells [2]; NS cells)	Compound	Activity on guinea pig myocardium (in words) [4]	Antagonism by cimetidine (H2 antagonist) of cAMP accumulation (natural suppressor cells [3])	other results
lost all H2 activity	Inactive	CC(CCCC(=O)Nc1ccc(C(F)(F)F)cc1)NCCc1c[nH]cn1 (stereo not drawn) [Compound 10]	no effect on the guinea pig myocardium	–	H1 activity in MLR (in words) (natural suppressor cells [1]): only H1 agonistic action; H1 activity in MLR (in words) (natural suppressor cells [1]; listed as compound 10): appeared to be a specific H1 receptor agonist
very potent in NS cell cAMP assays	4.3 × 10^4	CC(CCCCC(=O)Nc1ccc(C(F)(F)F)cc1)NCCc1c[nH]cn1 (stereo not drawn) [Compound 9]	strikingly impotent in guinea pig myocardium	could not be completely inhibited by the H2 antagonist	Potency or activity relative to histamine (natural suppressor cells [2]; NS cells): 40,000 fold; Potency relative to histamine (natural suppressor cells [2]; NS cells): 4 orders of magnitude; Maximal efficacy on cAMP concentrations (in words) (natural suppressor cells [2]; NS cells): lost a significant amount of maximal efficacy; Activity / potency on NS cells (in words) (natural suppressor cells [2]; listed as compound 9): most potent of this series on H2 receptors; also recorded: retained H2 activity; Activity on guinea pig myocardium (in words) ([4]; listed as compound 9): did not stimulate adenylate cyclase in guinea pig myocardium
